From ChEMBL document CHEMBL5291721, “A preclinical secondary pharmacology resource illuminates target-adverse drug reaction associations of marketed drugs” (Nat Commun, 2023)

What was measured:
[1] = biological target: T1, 5-hydroxytryptamine receptor 1A (Homo sapiens, UniProt P08908)
T1 sequence (P08908 whole entry): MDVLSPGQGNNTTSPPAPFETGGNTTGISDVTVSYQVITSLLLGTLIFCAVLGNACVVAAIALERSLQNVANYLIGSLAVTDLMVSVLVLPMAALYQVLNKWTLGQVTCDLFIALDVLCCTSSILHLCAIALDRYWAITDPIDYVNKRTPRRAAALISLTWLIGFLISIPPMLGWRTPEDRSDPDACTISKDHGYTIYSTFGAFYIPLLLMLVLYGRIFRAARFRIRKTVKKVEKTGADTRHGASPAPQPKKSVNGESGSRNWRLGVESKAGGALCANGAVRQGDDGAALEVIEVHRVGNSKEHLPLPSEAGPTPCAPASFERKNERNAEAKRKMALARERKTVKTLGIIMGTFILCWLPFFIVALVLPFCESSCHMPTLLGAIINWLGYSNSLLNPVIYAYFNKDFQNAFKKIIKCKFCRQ

[2] = biological target: T2, Neuropeptide Y receptor type 2 (Homo sapiens, UniProt P49146)
T2 sequence (P49146 whole entry): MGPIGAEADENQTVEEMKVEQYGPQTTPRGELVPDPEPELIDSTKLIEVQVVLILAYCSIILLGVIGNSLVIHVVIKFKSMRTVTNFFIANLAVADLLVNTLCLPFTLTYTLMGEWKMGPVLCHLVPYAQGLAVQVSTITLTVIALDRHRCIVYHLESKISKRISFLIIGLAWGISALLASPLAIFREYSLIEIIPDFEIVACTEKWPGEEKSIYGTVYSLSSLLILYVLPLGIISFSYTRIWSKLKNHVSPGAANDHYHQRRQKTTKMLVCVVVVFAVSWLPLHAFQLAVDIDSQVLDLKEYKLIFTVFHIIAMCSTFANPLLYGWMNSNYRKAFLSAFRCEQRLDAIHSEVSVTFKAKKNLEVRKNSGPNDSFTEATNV

[3] = biological target: T3, Alpha-1A adrenergic receptor (Homo sapiens, UniProt P35348)
T3 sequence (P35348 whole entry): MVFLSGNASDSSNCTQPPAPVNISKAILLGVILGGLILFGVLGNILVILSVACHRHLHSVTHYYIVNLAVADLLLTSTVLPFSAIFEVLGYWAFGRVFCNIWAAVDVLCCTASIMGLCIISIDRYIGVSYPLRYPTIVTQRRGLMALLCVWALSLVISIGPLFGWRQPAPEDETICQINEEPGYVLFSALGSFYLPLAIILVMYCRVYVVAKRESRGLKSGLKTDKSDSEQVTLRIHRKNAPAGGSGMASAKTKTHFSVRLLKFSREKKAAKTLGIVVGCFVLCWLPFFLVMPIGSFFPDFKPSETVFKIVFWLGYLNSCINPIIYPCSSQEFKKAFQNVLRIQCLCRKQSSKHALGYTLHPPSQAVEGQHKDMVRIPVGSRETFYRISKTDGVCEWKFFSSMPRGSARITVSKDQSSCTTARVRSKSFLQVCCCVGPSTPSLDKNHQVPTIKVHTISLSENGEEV

B1 bradykinin receptor = biological target: T4, B1 bradykinin receptor (Homo sapiens, UniProt P46663)
T4 sequence (P46663 whole entry): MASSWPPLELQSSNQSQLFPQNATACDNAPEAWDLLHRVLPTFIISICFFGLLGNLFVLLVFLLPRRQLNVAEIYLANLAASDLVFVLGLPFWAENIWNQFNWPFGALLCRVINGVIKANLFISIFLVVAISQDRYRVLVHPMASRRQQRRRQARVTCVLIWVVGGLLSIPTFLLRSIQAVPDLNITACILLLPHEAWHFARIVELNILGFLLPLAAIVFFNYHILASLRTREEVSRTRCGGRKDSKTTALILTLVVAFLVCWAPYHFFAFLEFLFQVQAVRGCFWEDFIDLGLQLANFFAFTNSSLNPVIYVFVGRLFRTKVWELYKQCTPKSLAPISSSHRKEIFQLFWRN

D(4) dopamine receptor = biological target: T5, D(4) dopamine receptor (Homo sapiens, UniProt P21917)
T5 sequence (P21917 whole entry): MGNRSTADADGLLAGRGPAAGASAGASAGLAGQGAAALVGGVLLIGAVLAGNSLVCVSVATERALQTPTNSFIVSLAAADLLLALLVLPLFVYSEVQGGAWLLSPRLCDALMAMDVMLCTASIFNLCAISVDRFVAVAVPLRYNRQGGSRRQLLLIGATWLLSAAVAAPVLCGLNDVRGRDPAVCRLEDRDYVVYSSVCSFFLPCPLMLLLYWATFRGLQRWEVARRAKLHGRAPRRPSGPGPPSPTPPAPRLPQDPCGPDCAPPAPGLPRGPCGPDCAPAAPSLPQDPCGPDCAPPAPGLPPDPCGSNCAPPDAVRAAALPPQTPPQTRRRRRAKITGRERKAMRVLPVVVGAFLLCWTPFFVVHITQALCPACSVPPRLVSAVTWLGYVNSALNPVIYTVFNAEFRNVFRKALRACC

Substance-P receptor = Substance-P receptor (Homo sapiens, UniProt P25103)
Sequence of Substance-P receptor (P25103 whole entry): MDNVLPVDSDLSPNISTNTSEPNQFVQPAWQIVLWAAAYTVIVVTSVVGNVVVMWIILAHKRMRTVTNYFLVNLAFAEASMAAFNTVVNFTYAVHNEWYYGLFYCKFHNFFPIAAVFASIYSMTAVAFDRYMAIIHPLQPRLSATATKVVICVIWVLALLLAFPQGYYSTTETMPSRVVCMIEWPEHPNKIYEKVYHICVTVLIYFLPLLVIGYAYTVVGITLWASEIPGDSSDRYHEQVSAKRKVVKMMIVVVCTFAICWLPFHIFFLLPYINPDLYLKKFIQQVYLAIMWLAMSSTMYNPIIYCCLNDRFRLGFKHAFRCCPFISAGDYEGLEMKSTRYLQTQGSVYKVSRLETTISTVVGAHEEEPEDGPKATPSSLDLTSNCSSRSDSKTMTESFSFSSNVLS

[4] = biological target: T6, Endothelin receptor type B (Homo sapiens, UniProt P24530)
T6 sequence (P24530 whole entry): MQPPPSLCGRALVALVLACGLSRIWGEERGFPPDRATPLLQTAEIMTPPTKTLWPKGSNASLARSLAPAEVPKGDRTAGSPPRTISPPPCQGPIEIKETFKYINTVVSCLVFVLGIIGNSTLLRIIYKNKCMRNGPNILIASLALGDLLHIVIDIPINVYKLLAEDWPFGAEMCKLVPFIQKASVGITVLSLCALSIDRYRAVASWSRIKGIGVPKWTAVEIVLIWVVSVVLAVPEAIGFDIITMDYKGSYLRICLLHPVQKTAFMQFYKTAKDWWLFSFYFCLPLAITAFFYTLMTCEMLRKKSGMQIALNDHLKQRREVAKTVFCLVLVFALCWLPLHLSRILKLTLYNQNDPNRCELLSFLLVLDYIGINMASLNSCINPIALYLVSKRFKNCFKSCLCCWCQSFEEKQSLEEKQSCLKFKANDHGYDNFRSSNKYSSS

[5] = biological target: T3, Alpha-1A adrenergic receptor; format: functional, cell-based
[6] = biological target: Sodium-dependent noradrenaline transporter (Homo sapiens, UniProt P23975)
Sequence of Sodium-dependent noradrenaline transporter (P23975 whole entry): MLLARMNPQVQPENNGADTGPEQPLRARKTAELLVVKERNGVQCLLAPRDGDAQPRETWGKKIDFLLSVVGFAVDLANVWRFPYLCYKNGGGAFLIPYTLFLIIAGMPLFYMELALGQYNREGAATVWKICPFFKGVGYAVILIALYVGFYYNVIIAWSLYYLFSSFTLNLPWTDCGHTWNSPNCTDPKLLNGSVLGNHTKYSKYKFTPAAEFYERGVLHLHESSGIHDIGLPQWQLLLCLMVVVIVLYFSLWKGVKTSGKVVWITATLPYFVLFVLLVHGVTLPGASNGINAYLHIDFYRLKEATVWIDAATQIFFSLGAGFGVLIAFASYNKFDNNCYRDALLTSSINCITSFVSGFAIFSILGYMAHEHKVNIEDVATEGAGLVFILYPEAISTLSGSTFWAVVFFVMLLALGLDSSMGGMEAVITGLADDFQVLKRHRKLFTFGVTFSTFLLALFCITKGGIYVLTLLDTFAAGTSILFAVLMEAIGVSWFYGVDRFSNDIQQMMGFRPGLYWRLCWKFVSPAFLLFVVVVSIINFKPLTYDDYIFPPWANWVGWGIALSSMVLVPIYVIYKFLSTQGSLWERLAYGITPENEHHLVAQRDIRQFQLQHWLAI

[7] = biological target: Beta-1 adrenergic receptor (Homo sapiens, UniProt P08588); format: functional, cell-based
Sequence of Beta-1 adrenergic receptor (P08588 whole entry): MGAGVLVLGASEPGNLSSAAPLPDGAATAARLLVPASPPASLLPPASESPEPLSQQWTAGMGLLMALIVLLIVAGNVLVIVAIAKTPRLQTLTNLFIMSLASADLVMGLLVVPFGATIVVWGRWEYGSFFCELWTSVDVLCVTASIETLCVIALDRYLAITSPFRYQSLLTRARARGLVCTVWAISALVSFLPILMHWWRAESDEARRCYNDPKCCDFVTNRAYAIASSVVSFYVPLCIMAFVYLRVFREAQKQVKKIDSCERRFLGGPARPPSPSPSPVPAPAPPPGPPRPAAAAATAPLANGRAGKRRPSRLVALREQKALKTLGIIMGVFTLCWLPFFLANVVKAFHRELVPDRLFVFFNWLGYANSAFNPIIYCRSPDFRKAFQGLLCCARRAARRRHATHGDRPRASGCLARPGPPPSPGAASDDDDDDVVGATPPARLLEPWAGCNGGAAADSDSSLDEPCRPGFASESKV
Note: assay procedure not described here.

Question: For `COc1ccc(CCNCC(O)COc2cccc(C)c2)cc1OC` (stereo not drawn) [BEVANTOLOL], which AC50 [1] is on record?
Answer: 1.56 µM

Question: How did the AC50 [1] turn out when `Clc1ccccc1C(c1ccccc1)(c1ccccc1)n1ccnc1` [CLOTRIMAZOLE] was run?
Answer: > 10 µM

Question: How did the AC50 [2] turn out when `Cc1c(OCC(F)(F)F)ccnc1C[S+]([O-])c1nc2ccccc2[nH]1` (stereo not drawn) [LANSOPRAZOLE] was run?
Answer: > 30 µM

Question: What about the AC50 [3] of the same molecule?
Answer: > 10 µM

Question: What about the AC50 (B1 bradykinin receptor) of the same molecule?
Answer: > 30 µM

Question: What about the AC50 (D(4) dopamine receptor) of the same molecule?
Answer: 2.11 µM

Question: What about the AC50 [1] of the same molecule?
Answer: > 10 µM

Question: And the AC50 (Substance-P receptor)?
Answer: 17.2 µM

Question: And the AC50 [4]?
Answer: > 30 µM

Question: With `CO[C@]12C[C@@H](COC(=O)c3cncc(Br)c3)CN(C)[C@@H]1Cc1cn(C)c3cccc2c13` [NICERGOLINE] as the molecule, how does the AC50 [5] read?
Answer: 21.8 µM

Question: And the AC50 [6]?
Answer: 11.1 µM

Question: How did the AC50 [7] turn out when `C[C@@H]1O[C@@H](O[C@@H]2C=C3CC[C@@H]4[C@H](CC[C@]5(C)[C@@H](c6ccc(=O)oc6)CC[C@]45O)[C@@]3(C)CC2)[C@H](O)[C@H](O)[C@H]1O` [PROSCILLARIDIN] was run?
Answer: > 30 µM

Question: How did the AC50 [1] turn out when `CC/C(=C(\c1ccccc1)c1ccc(OCCN(C)C)cc1)c1ccccc1` [TAMOXIFEN] was run?
Answer: > 10 µM

Question: How did the AC50 [7] turn out when `C#C[C@]1(O)CC[C@H]2[C@@H]3[C@H](C)CC4=C(CCC(=O)C4)[C@H]3CC[C@@]21C` [TIBOLONE] was run?
Answer: > 30 µM

Question: What does the source list for `COc1cccc(C2(O)CCCCC2CN(C)C)c1` (stereo not drawn) [TRAMADOL]?
Answer: AC50 [2]: > 30 µM; AC50 [3]: > 10 µM; AC50 (B1 bradykinin receptor): > 30 µM; AC50 (D(4) dopamine receptor): > 10 µM; AC50 (Substance-P receptor): > 10 µM; AC50 [4]: > 30 µM

Question: `Cc1nnc2n1-c1ccc(Cl)cc1C(c1ccccc1Cl)=NC2` [TRIAZOLAM] was tested. Which AC50 [1] did it give?
Answer: > 10 µM

Question: Which AC50 [5] does the source give for THIMEROSAL here?
Answer: > 30 µM

Question: What about the AC50 [6] of the same molecule?
Answer: > 30 µM
